# Experimental data as given in patent US7745426B2, “Compositions and methods for reducing the risk of epileptic occurrence and/or for treatment of seizure disorders” (D-Pharm Ltd., priority 2003, dated 2010).
# Structures can show the parent of a compound that is named as a salt.
# Experiments:
# Assay type in all cases: in vivo
# [1] = tested on: epilepsy-prone (EP) mice, PTZ-induced convulsions; test: PTZ-induced convulsive reaction in EP mice, NC-001 orally administered; conditions: 30 mg/kg orally 30 min prior to PTZ 50 mg/kg i.p.; four female EP mice vs eight vehicle
# Source text: (§1) Intensity of PTZ-induced Convulsive Reaction in Scores • 1. A few myoclonic jerks (less than 10) • 2. Less than 20 jerks • 3. Less than 30 jerks • 4. 30-40 jerks/jerks and jumps/short partial convulsions. • 5. Uninterrupted jerks/series of jerks and jumps/repeated partial convulsions • 5.5 Abortive generalized convulsions • 6. Single generalized convulsive attack • 7. Series of jerks, jumps & single generalized convulsive attack; single generalized convulsions with further motor excitation • 7.5 Severe prolonged generalized convulsions • 8. Repeated generalized convulsions • 9. Series of jerks/jumps & repeated convulsions • 10. Status epilepticus • 12. Lethal convulsions
# In order to test the ability of the vitamin B6-GABA conjugated compound to cross the GI barrier, epilepsy-prone (EP) mice were orally administered with NC-001.
# A group of 12 female EP mice were i.p. treated with 50 mg/kg PTZ to induce seizures. Thirty minutes prior to PTZ administration, NC-001 at the dose of 30 mg/kg was orally administered to four of the animals (=treated group), the other eight animals were treated with vehicle only and served as a control group. All twelve animals were scored, during 30 minutes following i.p. PTZ administration, for intensity of convulsive reactions (see table of convulsive reaction scores as appear above in Example 4).
# [2] = tested on: epilepsy-prone (EP) subline of BALB/c mice, PTZ-induced convulsions; test: PTZ-induced convulsive reaction in genetically epilepsy-prone (EP) mice, compounds given i.p.; conditions: for anticonvulsive effect against PTZ-induced convulsive reaction (FIG. 1): 10 mg/kg i.p. 30 minutes prior to PTZ i.p., recorded 30 min
# Protocol: The animal model used is epilepsy-prone (EP) subline of mice that was selectively bred from a strain of BALB/c mice (Dolina et al. in Epilepsia (1993) 43: 33-42).
# EP mice were subjected to seizure induction by intraperitoneal (i.p.) injection of pentylenetetrazol (PTZ) 50-60 mg/kg dissolved in saline. The EP animals were i.p. treated with the tested compound(s) 10 to 60 minutes prior to the PTZ injection.
# The tested compounds were the following: • 1) NC-001 10 mg/kg • 2) Pyridoxine hydrochloride (=Vitamin B6) 10 mg/kg • 3) GABA 10 mg/kg • 4) Separately injected Vitamin B6 and GABA, 10 mg/kg each. A group of EP animals injected with PTZ only, with no further treatment, served as a control group.
# The intensity of the PTZ-induced convulsive reaction for each group was evaluated in scores according to the following scale:
# as §1
# In each group of EP animals, convulsive reactions were recorded during the first 30 minutes following administration of the seizure inducer.
# Genetically epilepsy-prone (EP) BALB/c mice, 3-5 animals in a group, were i.p. administered with either 5 mg/kg, 7.5 mg/kg or 10 mg/kg of NC-001 thirty minutes prior to i.p. injection of PTZ (60 mg/kg). The numbers of seizures were then recorded for each animal during 30 minutes following the PTZ injection. The intensity of convulsive reaction was scored for each of the treatment groups.
# [3] = tested on: audiogenic sensitive rats, sound-induced convulsions; test: Sound-induced convulsions in audiogenic sensitive rats chronically treated with PHT with or without pyridoxine; conditions: 100 db sound
# Source text: Phenyloin (PHT) is prescribed for medication of generalized […] generalized convulsions, complex partial seizures and simple partial seizures. […] In the experiments, intensity of 100 db sound stimulation was used. […] The second group included pyridoxine-untreated rats. […] Eleven rats were used in each group.
# [4] = EP mice, 10 mg/kg i.p. 30 minutes prior to PTZ, six tested mice
compound,measurement,setting,value
"Cc1ncc(COC(=O)CCCN)c(CO)c1O [NC-001, [5-Hydroxy-6-methyl-4-(hydroxymethyl)-pyrid-3-yl]methyl-4-aminobutyrate, dihydrochloride]","protective effect, intensity of convulsive reactions (FIG. 3)",[1],significant protective effect
same,EP mice that exhibited generalized convulsions,"[2]; 5 mg/kg i.p. 30 min prior to PTZ 60 mg/kg i.p., FIG. 2",two of the four
same,effect on generalized PTZ-induced convulsions,"[2]; 7.5 mg/kg i.p. 30 min prior to PTZ 60 mg/kg i.p., three EP mice, numerous jerks in all, FIG. 2",prevented generalized PTZ-induced convulsions in all three treated EP mice
same,effect on generalized convulsive reactions,"[2]; 10 mg/kg i.p. 30 min prior to PTZ 60 mg/kg i.p., single jerks in one mouse, FIG. 2",completely prevented generalized convulsive reactions
same,dose dependence of anti-convulsive effect,"[2]; 5, 7.5, 10 mg/kg i.p., PTZ 60 mg/kg, FIG. 2",dose-dependent anti-convulsive protective effect
same,anticonvulsive effect against PTZ-induced convulsive reaction (FIG. 1),[2]; EP mice,almost a complete protection against the convulsive symptoms
same,animals that had only few convulsive jerks,[2]; [4],two
same,mice that did not show any convulsive reaction,[2]; [4],Four out of the six
"Cc1ncc(CO)c(CO)c1O.Cl [Vitamin B6, Pyridoxine hydrochloride, reference compound]",anticonvulsive effect against PTZ-induced convulsive reaction (FIG. 1),[2]; EP mice,some protection against PTZ-induced generalized convulsions
"O=C1NC(=O)C(c2ccccc2)(c2ccccc2)N1 [PHT, 5,5-Diphenyl-2,4-imidazolidinedione]",number of tests with sound-induced convulsive reactions,"[3]; 22 tests per group, chronic PHT, days 13 and 14",6
same,tests resulting in sound-induced convulsions (percent of 22 tests),"[3]; PHT 75 mg/kg then 12 x 50 mg/kg once a day, tested days 13 and 14, 11 rats per group",27.3%
"NCCCC(=O)O [GABA, γ-aminobutyric acid, reference compound]",anticonvulsive effect against PTZ-induced convulsive reaction (FIG. 1),[2]; EP mice,did not show any anticonvulsive effect
